Results on two compounds are retold here after publication PMC7300299, “Anticholinergic Drugs Interact With Neuroprotective Chaperone L-PGDS and Modulate Cytotoxicity of Aβ Amyloids” (Frontiers in Pharmacology, 2020).

Molecules are shown by their SMILES.

The target in this test is T1, human lipocalin-type prostaglandin D synthase (L-PGDS), wild type (Homo sapiens, UniProt P41222).
T1 construct: gene PTGDS; recombinant wild type, pNIC-CH vector, E. coli Rosetta 2 (DE3), Superdex 75 purified
T1 sequence (P41222 23-190): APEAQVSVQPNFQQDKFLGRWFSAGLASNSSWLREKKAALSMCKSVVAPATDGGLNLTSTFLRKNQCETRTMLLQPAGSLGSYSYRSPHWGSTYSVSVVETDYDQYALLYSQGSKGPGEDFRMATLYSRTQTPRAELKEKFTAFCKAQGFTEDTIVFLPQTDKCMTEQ
The experiment in a line: ITC (reverse titration, L-PGDS into drug). The note with it: read-out: Binding affinities and thermodynamic parameters / Kd^a. From the text: ITC (reverse titration, L-PGDS into drug) on human lipocalin-type prostaglandin D synthase (L-PGDS), wild type

Consider `CN(C)CCC(c1ccc(Cl)cc1)c1ccccn1` (centres unmarked) [CPM, Chlorpheniramine], for which the Kd was 5.7 ± 0.2 µM.

Take `O=c1n(CCCN2CCN(c3cccc(Cl)c3)CC2)nc2ccccn12` [TRD, Trazodone]: the Kd amounted to 6.5 ± 0.2 µM.
